According to the supplement of paper PMC11451515:

Tested on: P12-Ichikawa
Assay: cell viability relative to DMSO control; higher = less cytotoxic
Details: 48 h
In short: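 Viability is a per-plate percentage relative to DMSO wells, with cell-free wells as background. CellTiter-Glo One luminescence was read after 48 h at 37°C on 1536-well plates (5 μl) of NOMO1 or SEM (500 cells/well) or P12-Ichikawa (1000 cells/well) leukemia cells. The cells had been adapted for at least four passages in each medium and pin-dosed with library compounds in DMSO from 47 μM to 0.79 nM in 11 threefold steps.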

[1] = HPLM + 10% dialyzed FBS, 0.000781 µM
[2] = HPLM + 10% dialyzed FBS, 0.00234 µM
[3] = HPLM + 10% dialyzed FBS, 0.00702 µM
[4] = HPLM + 10% dialyzed FBS, 0.0211 µM
[5] = HPLM + 10% dialyzed FBS, 0.0632 µM
[6] = HPLM + 10% dialyzed FBS, 0.19 µM
[7] = HPLM + 10% dialyzed FBS, 0.569 µM
[8] = HPLM + 10% dialyzed FBS, 1.71 µM
[9] = HPLM + 10% dialyzed FBS, 5.12 µM
[10] = HPLM + 10% dialyzed FBS, 15.4 µM
[11] = HPLM + 10% dialyzed FBS, 46.1 µM
[12] = RPMI 5 mM glucose + 10% FBS, 0.000781 µM
[13] = RPMI 5 mM glucose + 10% FBS, 0.00234 µM
[14] = RPMI 5 mM glucose + 10% FBS, 0.00702 µM
[15] = RPMI 5 mM glucose + 10% FBS, 0.0211 µM
[16] = RPMI 5 mM glucose + 10% FBS, 0.0632 µM
[17] = RPMI 5 mM glucose + 10% FBS, 0.19 µM
[18] = RPMI 5 mM glucose + 10% FBS, 0.569 µM
[19] = RPMI 5 mM glucose + 10% FBS, 1.71 µM
[20] = RPMI 5 mM glucose + 10% FBS, 5.12 µM
[21] = RPMI 5 mM glucose + 10% FBS, 15.4 µM
[22] = RPMI 5 mM glucose + 10% FBS, 46.1 µM
[23] = RPMI 5 mM glucose + 10% dialyzed FBS, 0.000781 µM
[24] = RPMI 5 mM glucose + 10% dialyzed FBS, 0.00234 µM
[25] = RPMI 5 mM glucose + 10% dialyzed FBS, 0.00702 µM
[26] = RPMI 5 mM glucose + 10% dialyzed FBS, 0.0211 µM
[27] = RPMI 5 mM glucose + 10% dialyzed FBS, 0.0632 µM
[28] = RPMI 5 mM glucose + 10% dialyzed FBS, 0.19 µM
[29] = RPMI 5 mM glucose + 10% dialyzed FBS, 0.569 µM
[30] = RPMI 5 mM glucose + 10% dialyzed FBS, 1.71 µM
[31] = RPMI 5 mM glucose + 10% dialyzed FBS, 5.12 µM
[32] = RPMI 5 mM glucose + 10% dialyzed FBS, 15.4 µM
[33] = RPMI 5 mM glucose + 10% dialyzed FBS, 46.1 µM

| SMILES | cell viability [1] | cell viability [2] | cell viability [3] | cell viability [4] | cell viability [5] | cell viability [6] | cell viability [7] | cell viability [8] | cell viability [9] | cell viability [10] | cell viability [11] | cell viability [12] | cell viability [13] | cell viability [14] | cell viability [15] | cell viability [16] | cell viability [17] | cell viability [18] | cell viability [19] | cell viability [20] | cell viability [21] | cell viability [22] | cell viability [23] | cell viability [24] | cell viability [25] | cell viability [26] | cell viability [27] | cell viability [28] | cell viability [29] | cell viability [30] | cell viability [31] | cell viability [32] | cell viability [33] |
| --- | --- | --- | --- | --- | --- | --- | --- | --- | --- | --- | --- | --- | --- | --- | --- | --- | --- | --- | --- | --- | --- | --- | --- | --- | --- | --- | --- | --- | --- | --- | --- | --- | --- |
| Cc1cc(Nc2ncc(Cl)c(Nc3ccccc3[S+](=O)([O-])C(C)C)n2)c(OC(C)C)cc1C1CCNCC1 | 111% | 113% | 110% | 117% | 112% | 115% | 101% | 105% | 105% | 90.6% | 30.2% | 111% | 104% | 113% | 118% | 125% | 112% | 108% | 96.1% | 94.1% | 69.9% | 5.5% | 117% | 117% | 118% | 116% | 115% | 117% | 111% | 113% | 107% | 89.3% | 10.5% |
| CCCCN(CCCC)CCC(O)c1cc2c(Cl)cc(Cl)cc2c2cc(C(F)(F)F)ccc12 (stereo unspecified) | 120% | 122% | 118% | 120% | 130% | 131% | 130% | 131% | 131% | 124% | 121% | 115% | 126% | 119% | 118% | 135% | 147% | 141% | 150% | 132% | 105% | 88.3% | 108% | 110% | 114% | 117% | 120% | 125% | 130% | 138% | 131% | 141% | 105% |
| Clc1cccc(-c2nnnn2Cc2cccnc2)c1Cl | 88.7% | 96% | 92.4% | 95.5% | 94.9% | 87.4% | 77.9% | 74.1% | 74.5% | 70.4% | 56.6% | 88.5% | 91.2% | 86.6% | 91.1% | 96.1% | 93.7% | 94.9% | 65.7% | 57% | 60.6% | 56.7% | 86.1% | 91.3% | 93.9% | 95.2% | 93.8% | 88.9% | 86.4% | 64.3% | 61.8% | 65.7% | 48.6% |
| Fc1cc(-c2cccc3ncc(-c4cnn(C5CCNCC5)c4)nc23)cc(F)c1CN1CCOCC1 | 119% | 113% | 122% | 115% | 123% | 118% | 108% | 113% | 68.8% | 57.7% | 28.9% | 122% | 123% | 120% | 118% | 122% | 118% | 118% | 120% | 91.2% | 70.7% | 27.1% | 119% | 122% | 119% | 114% | 110% | 120% | 123% | 101% | 87.2% | 60.1% | 15.1% |
| COc1cc(N2CCC(C(N)=O)CC2)ccc1Nc1nc(N)c(Cl)c(Nc2ccccc2[S+](=O)([O-])C(C)C)n1 | 88.6% | 97.4% | 102% | 95.2% | 111% | 106% | 108% | 104% | 96.9% | 84.1% | 3.45% | 81.9% | 102% | 101% | 107% | 103% | 98.1% | 99.9% | 95.9% | 77.8% | 64.6% | 2.33% | 91.3% | 104% | 98.8% | 94.7% | 103% | 97.9% | 100% | 88% | 74.9% | 54.9% | 4.65% |
| CCNC(=O)C[C@@H]1\N=C(C2=CC=C(Cl)C=C2)/C3=C(C=CC(=C3)OC)[N]4C(=NN=C14)C | 106% | 115% | 106% | 114% | 105% | 103% | 92.1% | 83.5% | 78.2% | 50.1% | 17% | 114% | 111% | 127% | 106% | 105% | 111% | 101% | 84.7% | 76% | 56.2% | 37.8% | 115% | 118% | 115% | 117% | 106% | 106% | 95.7% | 84% | 75.8% | 60.4% | 35.9% |
| COc1cc2c(N3CCN(C(=O)Nc4ccc(OC(C)C)cc4)CC3)ncnc2cc1OCCCN1CCCCC1 | 88.6% | 92.6% | 87.4% | 97.5% | 91.3% | 91.6% | 92.3% | 90% | 86% | 58% | 43.4% | 84.3% | 74.1% | 80% | 92.5% | 86.3% | 72.8% | 78.9% | 80.1% | 77.4% | 42.9% | 48.1% | 79.5% | 86.9% | 84.7% | 83% | 81.1% | 82.2% | 83.6% | 79% | 84.6% | 38.1% | 56% |
